According to patent publication US4918064A, “Phenyl glycines for use in reducing neurotoxic injury” (G. D. Searle & Co., priority 1987, dated 1990):

What was measured:
NMDA receptor = experiment: NMDA-specific L-[3H]glutamate receptor binding assay, synaptic plasma membranes; details: L-[3H]glutamate 12.5 nM, Triton X-100 treated SPM, 0-4° C., 10 min
Experimental: (§1) Synaptic plasma membranes (SPM) were prepared as previously described [Monahan, J. B. and Michel, J., "Identification and Characterization of an N-methyl-D-aspartate-specific L[^3 H]glutamate Recognition Site in Synaptic Plasma Membranes, J. Neurochem., 48, 1699-1708 (1987)]. The SPM were stored at a concentration of 10-15 mg/ml in 0.32M sucrose, 0.5 mM EDTA, 1 mM MgSO4, 5 mM Tris/SO4, pH 7.4, under liquid nitrogen. The identity and purity of the subcellular fractions were confirmed by both electron microscopy and marker enzymes. Protein concentrations were determined by using a modification of the method of Lowry [Ohnishi, S. T. and Barr, J. K., "A Simplified Method of Quantitating Proteins Using the Biuret and Phenol Reagents", Anal. Biochem., 86, 193-197 (1978)].
Prior to use in the NMDA-specific L-[^3 H]glutamate binding assay the SPM were thawed, diluted twenty fold with 50 mM Tris/acetate, pH 7.4 containing 0.04% (v/v) Triton X-100, incubated for 30 minutes at 37° C. and centrifuged as described above. The Triton X-100 treated membranes were washed with 50 mM Tris/acetate, pH 7.4 and centrifuged at 100,000 g for 15 minutes a total of four times.
(§2) The basic procedure for the receptor subclass binding assays was similar. This general method involved adding the radioligand (12.5 nM L-[^3 H]glutamate; 0.5 nM [^3 H]kainate or 10 nM [^3 H]AMPA) to the appropriate concentration of the test compound and initiating the assay by the addition of ice cold synaptic plasma membranes (0.2-0.45 mg). The binding assays were performed in 1.5 mL centrifuge tubes with the total volume adjusted to 1.0 mL. .Additions of test compounds were made in 50 mM Tris/acetate, pH 7.4 and incubations were carried out at 0°-4° C. The incubation time for the NMDA and the AMPA binding assays was 10 minutes, for the kainate binding assay 60 minutes and for the sodium-dependent glutamate binding assay 15 minutes. The AMPA binding assay contained 100 mM KSCN and the sodium-dependent glutamate binding assay contained 150 mM sodium acetate in addition to the previously described reagents.
(§3) To terminate the incubation, the samples were centrifuged for 15 minutes at 12,000 g and 4° C. in a Beckman Microfuge 12. The supernatant was aspirated and the pelleted membranes dissolved in Beckman BTS-450 tissue solubilizer for a minimum of 6 hours at room temperature. Beckman MP scintillation cocktail containing 7 mL/1 acetic acid was then added and the samples counted on a Beckman LS 5800 or 3801 liquid scintillation counter with automatic corrections for quenching and counting efficiency.
(§4) Nonspecific binding was defined as the residual binding in the presence of either excess L-glutamate (0.1-0.4 mM), kainate (0.01 mM), or NMDA (0.5 mM), and was 15-25% of the total binding in the NMDA binding assay, 19-27% in the AMPA binding assay, 20-30% in the kainate binding assay and 10-15% in the sodium-dependent binding assay. Radioligand binding to the synaptic plasma membranes was analyzed using Scatchard and Hill transformations and the Ki values of the compounds determined using logit-log transformations. Calculations and regression analysis were performed using templates developed for Lotus 1, 2, 3 as previously described [Pullan, L. M. "Automated Radioligand Receptor Binding Analysis with Templates for Lotus", Computer Appln. Biosci., 3 131 (1987)]. Binding results are reported in Table II for example compounds of the invention. […]

KA (kainate) receptor = experiment: [3H]kainate receptor binding assay, synaptic plasma membranes; details: [3H]kainate 0.5 nM, 0-4° C., 60 min
Experimental: as §1
(§5) The SPM were treated identically for the [^3 H]AMPA (QUIS), [^3 H]kainate and sodium-dependent L-[^3 H]-glumatate binding assays. The SPM were thawed at room temperature, diluted twenty-fold with 50 mM Tris/acetate, pH 7.4, incubated at 37° C. for 30 minutes, and centrifuged at 100,000 g for 15 minutes. The dilution, incubation, and centrifugation was repeated a total of three times.
as §2, §3, §4

[1] = target: Quis (quisqualate) receptor; experiment: [3H]AMPA (QUIS) receptor binding assay, synaptic plasma membranes; details: [3H]AMPA 10 nM, 100 mM KSCN, 0-4° C., 10 min
Experimental: as §1, §5, §2, §3, §4

CD-1 mouse = experiment: In Vivo 3-MPA-Induced Convulsions (tonic hindlimb extension)
Experimental: In the CD-1 mouse, i.p. injection of 3-MPA produces clonic seizures, tonic hindlimb extension and death. Seizures begin within 2-3 minutes after injection. The dose-response for induction of tonus by 3-MPA is unusual. The incidence of tonus increases rapidly from 35 to 50 mg/kg and remains constant at a less than maximal level over a broad dose range. 3-MPA doses from 50 to 150 mg/kg produce tonus in approximately 75% of the treated mice. The incidence of death over this dose range is variable and less than maximal.
In order to test for antagonism of 3-MPA-induced tonus, the lowest dose of 3-MPA that produced tonus consistently in 75% of the animals (50 mg/kg i.p.) was chosen. Test compounds were administered subcutaneously 30-40 minutes prior to i.p. administration of 3-MPA. Immediately after 3-MPA administration, each mouse was placed in a small cage made of steel rods. The mice were then observed for the presence or absence of tonic hindlimb extension. Reduction (from 75%) in the incidence of tonic hindlimb extension was considered protection from 3-MPA-induced convulsions. The dose of the test compound varied using groups of ten mice per dose until dose response curves are constructed, and ED50 's are calculated.

chick embryo retina = details: agonist alone, pilot experiments, 30 min; cited from earlier work

Row | Structure (SMILES) | Ki (NMDA receptor) | Receptor binding, KA (Ki) (KA (kainate) receptor) | Ki [1] | mice with tonus produced by 3-MPA (CD-1 mouse; 3-MPA 50 to 150 mg/kg i.p.) | time after injection at which seizures begin (CD-1 mouse; 3-MPA i.p.) | lowest dose of 3-MPA that produced tonus consistently in 75% of the animals (CD-1 mouse; i.p.) | lowest concentration required to consistently obtain fully developed retinal lesions (chick embryo retina)
1 | NC(CCCCCP(=O)(O)O)C(=O)O (racemic) [D,L-AP7, D,L-2-amino-7-phosphonoheptanoic acid, reference compound] | 5.4 µM | > 300 µM | > 300 µM | – | – | – | –
2 | N[C@H](CCCCCP(=O)(O)O)C(=O)O [D-AP7, reference compound] | 4 µM | > 300 µM | > 300 µM | – | – | – | –
3 | O=C(O)CCS [Example 3-MPA] | – | – | – | approximately 75% | 2 to 3 min | 50 mg/kg | –
4 | C=C(C)[C@H]1CN[C@H](C(=O)O)[C@H]1CC(=O)O [KA, Kainate] | – | – | – | – | – | – | 25 µM
5 | CCOP(=O)(O)Cc1ccc(C(N)C(=O)O)cc1 (stereo not shown) [VII, 4-(Ethylphosphonomethyl)phenylglycine] | 70 µM | > 300 µM | > 300 µM | – | – | – | –
6 | Cc1cc(C(N)C(=O)O)c(C)cc1CP(=O)(O)O.Cl (stereo not shown) [X, 2,5-dimethyl-4-(phosphonomethyl)phenylglycine hydrochloride] | 21.3 µM | > 300 µM | > 300 µM | – | – | – | –
